Values of other authors as cited in US20080132534A1, “Pharmaceutical composition comprising a macrolide immunomodulator” (priority 2003, published 2008).

Tested on: allogeneic kidney transplantation
Conditions: rat, oral administration, suppression of systemic immune response

## C=CC[C@@H]1/C=C(\C)C[C@H](C)C[C@H](OC)[C@H]2O[C@@](O)(C(=O)C(=O)N3CCCC[C@H]3C(=O)O[C@H](/C(C)=C/[C@@H]3CC[C@@H](O)[C@H](OC)C3)[C@H](C)[C@@H](O)CC1=O)[C@H](C)C[C@@H]2OC [tacrolimus]
  minimum effective dose (MED): 14 mg/kg
